Each structure is given as a SMILES string. Where “and” joins values, the source holds several entries; their conditions need not be identical. Identical values can stand only once.

In the assay the test system is eIF2-GTP-Met-tRNAi ternary complex. Put plainly: Ternary complex assay (dual luciferase, firefly/renilla ratio) in stable KLN-tTA/pBISA-DL(ATF-4) cells; HTS and hit confirmation. The format is cell-based, mouse. On the set-up: Activity 10 uM / Activity 2.5 uM / Activity 5 uM: unit not given here. Particulars: for Activity 2.5 uM: compound at 2.5 uM; for Activity 2.5 uM / Activity 10 uM: confirmed hits of the screen (Table 5); for Activity 10 uM: compound at 10 uM. From the text:
For assay development, a bi-directional plasmid was designed in which a common promoter/enhancer complex drives the transcription of firefly luciferase (F-luc) ORF fused to the 5′ untranslated region (UTR) of ATF-4, and of the renilla luciferase (R-luc) ORF fused to a 90-nucleotide 5′ UTR derived from the plasmid (FIG. 6A). Because the tetracycline-regulated transactivator ((tTA), required for driving transcription from this vector) is not normally expressed in the mammalian cells, stable KLN cancer cells were constructed that expressed tTA (KLN-tTA).
The KLN-tTA colonies that drove expression of reporter genes from pBISA-DL plasmid were selected by transient transfection and dual luciferase assay. One of these KLN-tTA cell lines was transfected with the pBISA-DL^(ATF-4) expression vector, stable colonies were selected by dual luciferase assay and expanded. To determine if reduced availability of the eIF2*GTP*Met-tRNAi ternary complex increased the translation of firefly luciferase and decreased translation of renilla luciferase, selected KLN-tTA/pBISA-DL^(AFT-4) colonies were treated with thapsigargin (TG) or tunicamycin (TU), two agents known to cause phosphorylation of eIF2α.
This assay was then adapted for high throughput screening in 96 and 384 well plates. This was done by evaluating the cell density, length of exposure to compounds, DMSO tolerance and optimum firefly and renilla substrate. We then challenged these cells with thapsigargin or DMSO. […] Cell-based assays usually have higher variation than homogeneous in vitro assays due to position effect in the plate, and other variables associated with handling of cells and the plates.
Screening was conducted in 384 well white opaque plates (Nalge Nunc), 100 μl volume RPMI+10% fetal bovine serum. Cells were plated at the sub-confluent density of 10,000 cells/well, and allowed to attach for a period of 16-18 hours at 37° C., 5% CO2. Compounds were added as 1 μl of a 1 mM DMSO stock solution for a final screening concentration of 10 μM, using low-volume tips for transfer (Molecular Bioproducts). Cells were then incubated in the presence of compound for an additional sixteen hours, again at 37° C., 5% CO2. Following incubation 70 μl of the culture medium was removed from each well to allow for reagent addition and plates were allowed to equilibrate to room temperature for thirty minutes. Firefly luciferase reporter activity was then read by the addition of thirty microliters of Dual Glo Luciferase reagent (Promega), followed by one hour incubation at room temperature to allow for adequate signal buildup. Luminescence counting was conducted on a Microbeta Trilux using a 1 second read time. Renilla luciferase reporter activity was measured following addition of 30 μl Stop and Glo Luciferase reagent (Promega) and incubation identical to the one carried out for the firefly luciferase one.
Compound scores were interpreted as firefly luciferase activity divided by renilla luciferase activity, normalized to the plate's DMSO control. […] All data analysis was conducted using the BioAssay HTS software package (CambridgeSoft).
102,709 compounds in the NCI Open Chemical Repository were then screened using this HTS assay. […] Initial hits were confirmed by repeating the same dual luciferase assay in 96 well plates. Briefly, 20,000 cells/well were plated in triplicate for each concentration (10, 5 and 2.5 μM) of the compounds.

In the case of `CCN(CC)C(=S)[S-].CCN(CC)C(=S)[S-].[Cu+2]` [Compound 1337], the “Activity 2.5 uM” value came out at 7.15.

For the molecule `Cc1nc(Nc2cccc(Cl)c2)c2cnn(-c3ccc(Cl)cc3)c2n1` [Compound 1626], the “Activity 2.5 uM” value came to 0.79 and the “Activity 10 uM” value was determined as 5.31.

`O=C(Nc1ccc(Cl)c(C(F)(F)F)c1)Nc1ccc2nnsc2c1` [Compound 1780]: the “Active or inactive N,N′-diarylurea (ternary complex assay)” value (designation in figure legend) was “active”.

Turning to `c1ccc(NNc2ccc3ccccc3n2)cc1` [Compound 1874], the “Activity 2.5 uM” value was determined as 4.27 and the “Activity 10 uM” value amounted to 3.99.

With `O=C(CCl)Nc1cc(Cl)ccc1Cl` [Compound 8275], the “Activity 2.5 uM” value is recorded as 0.81.

With `Cc1ccc2c(c1)sc(-c1ccc(N(C)C)cc1)[n+]2C.[Cl-]` [Compound 11235], the “Activity 2.5 uM” value is 4.88 and 7.3.

On to `CCCCCCCC[N+](CCCC)(CCCC)CCCC.O=C([O-])CCl` [Compound 12134], for which the “Activity 2.5 uM” value is given as 8.83.

As to `CCOC(=O)N(C(=O)c1ccc([As]=O)cc1)C(=O)c1ccc([As]=O)cc1` (stereo not shown) [Compound 12750], the “Activity 2.5 uM” value was found to be 1.79 and the “Activity 10 uM” value came to 4.9.

As for `CCN(CC)CCCC(C)n1c(SC)nc2cc(Cl)ccc21` (stereo not shown) [Compound 13268], the “Activity 2.5 uM” value amounted to 1.46 and the “Activity 10 uM” value is on record as 3.18.

In the case of `CCCCCCCCC(N)CCCCCCCC.Cl` [Compound 14209], the “Activity 2.5 uM” value is given as 0.85 and the “Activity 10 uM” value turned out to be 14.32.

As to `Cc1cc(/C=C/C2CCC3CC(C)CCC3N2CCO)c(C)n1-c1ccccc1` (stereo not shown) [Compound 14238], the “Activity 2.5 uM” value is listed as 1.37 and the “Activity 10 uM” value is 3.02.

As to `CC(=O)NC1=CC(=O)C=CC1=Nc1ccc(N(C)C)cc1C` [Compound 14739], the “Activity 2.5 uM” value came to 1.12 and the “Activity 10 uM” value stood at 4.06.

Consider `Cc1c(Cl)ccc2c(C(O)CNCc3ccccc3)cc(-c3ccc(Cl)cc3)nc12` (stereo not shown) [Compound 14755], for which the “Activity 2.5 uM” value amounted to 0.68 and the “Activity 10 uM” value worked out at 6.63.

On to `CC(C)Nc1nc(NC(C)C)c2cnn(-c3ccccc3)c2n1` [Compound 19143], for which the “Activity 2.5 uM” value is given as 1.72 and the “Activity 10 uM” value came to 3.2.

Turning to `CCCCCCCCCCCCCCCCCC[n+]1ccc(C(C)CC)cc1.[Cl-]` (stereo not shown) [Compound 19763], the “Activity 2.5 uM” value was 4.63 and the “Activity 10 uM” value is recorded as 13.29.

On to `CCO[C@@H]([CH2][Hg][Cl])[C@](C)([CH2][Hg][Cl])OCC` [Compound 21293], for which the “Activity 2.5 uM” value is recorded as 3.16.

On to `CN(C)c1ccc(C2(Cl)c3ccccc3N(Cc3ccccc3)c3ccccc32)cc1.Cl` [Compound 21533], for which the “Activity 2.5 uM” value came to 2.03 and the “Activity 10 uM” value came out at 8.88.

In the case of `O=C(C=Cc1ccc([N+](=O)[O-])o1)C=Cc1ccc([N+](=O)[O-])o1` [Compound 21620], the “Activity 2.5 uM” value is 0.74 and the “Activity 10 uM” value is 16.28.

Consider `c1ccc(-c2ccc(-c3cnc(-c4ccc(-c5ccccc5)cc4)o3)cc2)cc1` [Compound 24863], for which the “Activity 2.5 uM” value is on record as 1.87 and the “Activity 10 uM” value is reported as 3.22.

For `CCCCN(CCCC)CCC(O)(c1ccc(OC)c2ccccc12)C(O)(CCN(CCCC)CCCC)c1ccc(OC)c2ccccc12.Cl` (stereo not shown) [Compound 26101], the “Activity 2.5 uM” value is 0.78 and the “Activity 10 uM” value was 4.13.

Regarding `Br.CCC1=C(C)/C(=C/c2[nH]c(C)c(CC)c2C)N=C1C` [Compound 26672], the “Activity 2.5 uM” value stood at 1.44 and the “Activity 10 uM” value was found to be 57.61.

Consider `CCCCCCCCCCCCCCCC[N+](C)(C)CCCCCC(=O)OC.[Br-]` [Compound 26847], for which the “Activity 2.5 uM” value turned out to be 1.83 and the “Activity 10 uM” value is 8.15.

Take `O=C1C=C(N2CC2)C(=O)C(N2CC2)=C1N1CC1` [Compound 29215]: the “Activity 2.5 uM” value is on record as 36.4.

On to `Clc1ccc(-c2nc(-c3ccccc3)[nH]c2-c2ccc(Cl)c(Cl)c2)cc1Cl` [Compound 30759], for which the “Activity 2.5 uM” value was 0.88 and the “Activity 10 uM” value came out at 6.9.

Take `COc1ccc2nc3cc(Cl)ccc3c(NCCCCN(C)C)c2c1.Cl` [Compound 32929]: the “Activity 2.5 uM” value is 0.35 and the “Activity 10 uM” value came to 5.76.

For `Cc1cc[n+](C2CCC3(C)C(=CCC4C3CCC3(C)C(C(C)CCCC(C)C)CCC43)C2)cc1.Cc1ccc(S(=O)(=O)[O-])cc1` (stereo not shown) [Compound 32994], the “Activity 2.5 uM” value was 2.83 and the “Activity 10 uM” value was determined as 6.52.

On to `CC(C)CCCC(C)C1CCC2C3CC=C4CC([n+]5cccc6ccccc65)CCC4(C)C3CCC12C.Cc1ccc(S(=O)(=O)[O-])cc1` (stereo not shown) [Compound 32999], for which the “Activity 2.5 uM” value turned out to be 2.41 and the “Activity 10 uM” value was 6.87.

Regarding `COc1ccc2nc(CCc3ccccc3)ccc2c1` [Compound 35424], the “Activity 2.5 uM” value is 2.55 and the “Activity 10 uM” value amounted to 3.07.

With `CN1c2ccccc2C(c2ccccc2)c2ccc(Nc3ccccc3)cc21.Cl` (stereo not shown) [Compound 35730], the “Activity 2.5 uM” value amounted to 5.35 and the “Activity 10 uM” value turned out to be 6.76.

As to `Cc1ccc(C(CN(C)C)C(=O)c2ccccc2)cc1C.Cl` (stereo not shown) [Compound 36684], the “Activity 2.5 uM” value came to 0.76 and the “Activity 10 uM” value is listed as 4.2.

Regarding `O=C1c2ccccc2C(=O)C2CC(c3ccccc3)=CCC12` (stereo not shown) [Compound 38062], the “Activity 2.5 uM” value was 2.61 and the “Activity 10 uM” value came out at 5.58.

For `CC1=CC(=O)C(C(C)C)=CC1=Nc1ccc(N(C)C)cc1` [Compound 39901], the “Activity 2.5 uM” value is on record as 1.41 and the “Activity 10 uM” value stood at 4.1.

`CC(=O)Nc1ccccc1[As](O[As](c1ccccc1)c1ccccc1NC(C)=O)c1ccccc1` (stereo not shown) [Compound 42108]: the “Activity 10 uM” value came out at 3.7.

For `O=C(Nc1ccc2ccccc2c1)c1cc2ccccc2cc1O` [Compound 42112], the “Activity 2.5 uM” value was 3.76 and the “Activity 10 uM” value is on record as 3.76.

Take `CCN1/C(=C/c2cc(C)nc(-c3ccccc3)[n+]2C)C=Cc2ccccc21.[Cl-]` [Compound 43683]: the “Activity 2.5 uM” value is on record as 3.73 and the “Activity 10 uM” value was found to be 5.26.

`CC(=O)Nc1cc(OC(C)=O)c2ccccc2c1OC(C)=O` [Compound 45171]: the “Activity 2.5 uM” value is 3.08.

For the molecule `COc1ccc2c3c(ccc2c1)[C@@H]1C/C(=C(\OC(C)=O)C(F)(F)F)C(=O)[C@@]1(C)CC3` [Compound 45226], the “Activity 2.5 uM” value was 3.03 and the “Activity 10 uM” value came out at 7.27.

With `CC(=O)OC1CCC2(C)C3CCC4(C)C(CCC4(Br)C(=O)CBr)C3CC(Br)C2(Br)C1` (stereo not shown) [Compound 45884], the “Activity 2.5 uM” value stood at 0.47 and the “Activity 10 uM” value turned out to be 16.23.

Regarding `Oc1cccc(-c2ccc(-c3ccccc3)cc2)c1` [Compound 47145], the “Activity 2.5 uM” value came to 3.4 and the “Activity 10 uM” value is reported as 5.16.

On to `N#C/C(=C(\c1ccccc1)c1ccccn1)c1ccccc1` [Compound 50915], for which the “Activity 2.5 uM” value was 1.11 and the “Activity 10 uM” value was determined as 7.81.

Take `O=Nc1c(O)ccc2ccccc12.[Fe].[Na+]` [Compound 51522]: the “Activity 2.5 uM” value came out at 1.66 and the “Activity 10 uM” value amounted to 10.99.

These data come from patent publication US9932300B2, “N,N′-diarylurea compounds and N,N′-diarylthiourea compounds as inhibitors of translation initiation” (President and Fellows of Harvard College, priority 2009, dated 2018).
